According to US20230279025A1, “KRAS G12D INHIBITORS” (Mirati Therapeutics, Inc., priority 2020, published 2023):

Target: KRas G12D (Homo sapiens (Human), UniProt P01116, G12D)
Experiment: KRas G12D Binding Assay (TR-FRET displacement of Cy5 labelled tracer)
Settings: GDP-loaded KRAS G12D (amino acids 1:169), 60 minute incubation at 22° C.
Procedure: After a 60 minute incubation at 22° C., the reaction was measured using a PerkinElmer EnVision multimode plate reader via TR-FRET dual wavelength detection, and the percent of control (POC) calculated using a ratiometric emission factor. […] The POC values were fit to a 4-parameter logistic curve and the IC50 value was determined as the concentration where the curve crosses 50 POC.
ND stands for “not determined.”

Chain of KRas G12D (P01116 other isoform, or with tags, fused parts or gaps G12D): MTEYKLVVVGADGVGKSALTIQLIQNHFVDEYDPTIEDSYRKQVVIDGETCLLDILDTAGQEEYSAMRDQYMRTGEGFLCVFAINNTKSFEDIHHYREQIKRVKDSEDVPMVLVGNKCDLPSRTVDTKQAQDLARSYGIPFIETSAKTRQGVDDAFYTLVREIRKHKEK

| Structure (SMILES) | IC50 [nM] |
| --- | --- |
| Cc1c(Cl)cc2[nH]ncc2c1-c1ncc2c(N3CC4CCC(C3)N4)nc(OC[C@@]34CCCN3C[C@H](F)C4)nc2c1F (stereo in doubt) [Example 401, 4-((1R,5S)-3,8-diazabicyclo[3.2.1]octan-3-yl)-7-(6-chloro-5-methyl-1H-indazol-4-yl)-8-fluoro-2-((2-fluorotetrahydro-1H-pyrrolizin-7a(5H)-yl)methoxy)pyrido[4,3-d]pyrimidine] | 2.8 |
| CO[C@H]1CN2CCC[C@]2(COc2nc(N3CC4CCC(C3)N4)c3cnc(-c4cccc5cccc(Cl)c45)c(F)c3n2)C1 [Example 225, 4-((1R,5S)-3,8-diazabicyclo[3.2.1]octan-3-yl)-7-(8-chloronaphthalen-1-yl)-8-fluoro-2-((2-methoxytetrahydro-1H-pyrrolizin-7a(5H)-yl)methoxy)pyrido[4,3-d]pyrimidine bis-2,2,2-trifluoroacetate] | 9.2 |
| NC1(COc2nc(N3C[C@H]4CC[C@@H](C3)N4)c3cnc(-c4cccc5cccc(Cl)c45)c(F)c3n2)CCCCC1 [Example 262, 1-(((4-((1R,5S)-3,8-diazabicyclo[3.2.1]octan-3-yl)-7-(8-chloronaphthalen-1-yl)-8-fluoropyrido[4,3-d]pyrimidin-2-yl)oxy)methyl)cyclohexanamine] | 2260 |
| COCCO[C@@H]1C[C@@H](COc2nc(N3C[C@H]4CC[C@@H](C3)N4)c3cnc(-c4cccc5cccc(Cl)c45)c(F)c3n2)N(C)C1 [Example 202, 4-((1R,5S)-3,8-diazabicyclo[3.2.1]octan-3-yl)-7-(8-chloronaphthalen-1-yl)-8-fluoro-2-(((2S,4R)-4-(2-methoxyethoxy)-1-methylpyrrolidin-2-yl)methoxy)pyrido[4,3-d]pyrimidine] | 94 |
| COc1c(Cl)cccc1-c1ncc2c(N3C[C@H]4CC[C@@H](C3)N4)nc(OCC34CCCN3CCC4)nc2c1F [Example 311, 4-((1R,5S)-3,8-diazabicyclo[3.2.1]octan-3-yl)-7-(3-chloro-2-methoxyphenyl)-8-fluoro-2-((hexahydro-1H-pyrrolizin-7a-yl)methoxy)pyrido[4,3-d]pyrimidine] | 135 |
| Cc1ccc(O)cc1-c1ncc2c(N3C[C@H]4CC[C@@H](C3)N4)nc(OCC34CCCN3CCC4)nc2c1F [Example 256, 3-(4-((1R,5S)-3,8-diazabicyclo[3.2.1]octan-3-yl)-8-fluoro-2-((hexahydro-1H-pyrrolizin-7a-yl)methoxy)pyrido[4,3-d]pyrimidin-7-yl)-4-methylphenol] | 13.2 |
| CN1CCC[C@H]1COc1nc(N2C[C@H]3CC[C@@H](C2)N3)c2cnc(-c3cc(O)cc4ccccc34)c(Cl)c2n1 [Example 191, 4-(4-((1R,5S)-3,8-diazabicyclo[3.2.1]octan-3-yl)-8-chloro-2-(((S)-1-methylpyrrolidin-2-yl)methoxy)pyrido[4,3-d]pyrimidin-7-yl)naphthalen-2-ol] | 69.1 |
| CCn1ccc2cccc(-c3ncc4c(N5C[C@H]6CC[C@@H](C5)N6)nc(OCC56CCCN5CCC6)nc4c3F)c21 [Example 427, 4-((1R,5S)-3,8-diazabicyclo[3.2.1]octan-3-yl)-7-(1-ethyl-1H-indol-7-yl)-8-fluoro-2-((hexahydro-1H-pyrrolizin-7a-yl)methoxy)pyrido[4,3-d]pyrimidine] | 35.3 |
| CCC(C)c1ccccc1-c1ncc2c(N3C[C@H]4CC[C@@H](C3)N4)nc(OCC34CCCN3CCC4)nc2c1F (stereo partly drawn) [Example 300, 4-((1R,5S)-3,8-diazabicyclo[3.2.1]octan-3-yl)-7-(2-(sec-butyl)phenyl)-8-fluoro-2-((hexahydro-1H-pyrrolizin-7a-yl)methoxy)pyrido[4,3-d]pyrimidine] | 768 |
| CO[C@H]1CN[C@H](COc2nc(N3C[C@H]4CC[C@@H](C3)N4)c3cnc(-c4cccc5cccc(Cl)c45)c(F)c3n2)C1 [Example 351, 4-((1R,5S)-3,8-diazabicyclo[3.2.1]octan-3-yl)-7-(8-chloronaphthalen-1-yl)-8-fluoro-2-(((2S,4R)-4-methoxypyrrolidin-2-yl)methoxy)pyrido[4,3-d]pyrimidine] | 94.8 |
| Cc1nccn1CCOc1nc(N2C[C@H]3C[C@@H](O)[C@@H](C2)N3)c2cnc(-c3cccc4cccc(Cl)c34)c(F)c2n1 [Example 167, (1R,5R,6R)-3-(7-(8-chloronaphthalen-1-yl)-8-fluoro-2-(2-(2-methyl-1H-imidazol-1-yl)ethoxy)pyrido[4,3-d]pyrimidin-4-yl)-3,8-diazabicyclo[3.2.1]octan-6-ol] | 226 |
| COC[C@H]1CC[C@@]2(COc3nc(N4CC5CCC(C4)N5)c4cnc(-c5cc(O)cc6ccccc56)c(F)c4n3)CCCN12 (stereo in doubt) [Example 389, 4-(4-((1R,5S)-3,8-diazabicyclo[3.2.1]octan-3-yl)-8-fluoro-2-((3-(methoxymethyl)tetrahydro-1H-pyrrolizin-7a(5H)-yl)methoxy)pyrido[4,3-d]pyrimidin-7-yl)naphthalen-2-ol] | 1.4 |
| Oc1cc(-c2ncc3c(N4CC5CCC(C4)N5)nc(OCC45CCCN4C[C@H](F)C5)nc3c2F)c2c(Cl)cccc2c1 (mixture of isomers) [Example 330, 4-(4-((1R,5S)-3,8-diazabicyclo[3.2.1]octan-3-yl)-8-fluoro-2-((2-fluorotetrahydro-1H-pyrrolizin-7a(5H)-yl)methoxy)pyrido[4,3-d]pyrimidin-7-yl)-5-chloronaphthalen-2-ol (racemic, trans)] | 2.5 |
| Oc1cc(-c2ncc3c(N4C[C@H]5CC[C@@H](C4)N5)nc(OC[C@@]45CCCN4C[C@H](F)C5)nc3c2F)c2c(F)cccc2c1 [Example 282, 4-(4-((1R,5S)-3,8-diazabicyclo[3.2.1]octan-3-yl)-8-fluoro-2-(((2R,7aS)-2-fluorohexahydro-1H-pyrrolizin-7a-yl)methoxy)pyrido[4,3-d]pyrimidin-7-yl)-5-fluoronaphthalen-2-ol] | 0.7 |
| CCc1cccc2cncc(-c3ncc4c(N5CC6CCC(C5)N6)nc(OCC56CCCN5C[C@H](F)C6)nc4c3F)c12 (mixture of isomers) [Example 324, 4-((1R,5S)-3,8-diazabicyclo[3.2.1]octan-3-yl)-7-(5-ethylisoquinolin-4-yl)-8-fluoro-2-((2-fluorotetrahydro-1H-pyrrolizin-7a(5H)-yl)methoxy)pyrido[4,3-d]pyrimidine (racemic, trans)] | 10.2 |
| Oc1cccc(OC(F)(F)F)c1-c1ncc2c(N3CC4CCC(C3)N4)nc(OC[C@@]34CCCN3C[C@H](F)C4)nc2c1F [Example 392, 2-(4-((1R,5S)-3,8-diazabicyclo[3.2.1]octan-3-yl)-8-fluoro-2-((2-fluorotetrahydro-1-H-pyrrolizin-7a(5H)-yl)methoxy)pyrido[4,3-d]pyrimidin-7-yl)-3-(trifluoromethoxy)phenol] | 208 |
| Fc1c(-c2cccc3cccc(Cl)c23)ncc2c(N3C[C@H]4CC[C@@H](C3)N4)nc(N3CC4(CCN4)C3)nc12 [Example 130, 4-((1R,5S)-3,8-diazabicyclo[3.2.1]octan-3-yl)-7-(8-chloronaphthalen-1-yl)-8-fluoro-2-(1,6-diazaspiro[3.3]heptan-6-yl)pyrido[4,3-d]pyrimidine] | 1650 |
| Oc1cc(-c2ncc3c(N4C[C@H]5CC[C@@H](C4)N5)nc(OC[C@@]45CCCN4C[C@H](F)C5)nc3c2F)c2c(F)c(F)ccc2c1 [Example 246, 4-(4-((1R,5S)-3,8-diazabicyclo[3.2.1]octan-3-yl)-8-fluoro-2-(((2R,7aS)-2-fluorohexahydro-1H-pyrrolizin-7a-yl)methoxy)pyrido[4,3-d]pyrimidin-7-yl)-5,6-difluoronaphthalene-2-ol] | 0.6 |
| N=C(N)NCCOc1nc(N2CC3CCC(C2)N3)c2cnc(-c3cccc4cccc(Cl)c34)c(F)c2n1 [Example 176, 1-[2-[7-(8-chloro-1-naphthyl)-4-(3,8-diazabicyclo[3.2.1]octan-3-yl)-8-fluoro-pyrido[4,3-d]pyrimidin-2-yl]oxyethyl]guanidine] | 235 |
| Fc1c(-c2cccc3cccc(Cl)c23)ncc2c(N3C[C@H]4CC[C@@H](C3)N4)nc(OCC34CCCN3CC(F)(F)C4)nc12 (stereo partly drawn) [Example 93, 4-((1R,5S)-3,8-diazabicyclo[3.2.1]octan-3-yl)-7-(8-chloronaphthalen-1-yl)-2-((2,2-difluorotetrahydro-1H-pyrrolizin-7a(5H)-yl)methoxy)-8-fluoropyrido[4,3-d]pyrimidine bis(2,2,2-trifluoroacetate)] | 105 |
| Oc1ccc(OC(F)(F)F)c(-c2ncc3c(N4C[C@H]5CC[C@@H](C4)N5)nc(OCC45CCCN4CCC5)nc3c2F)c1 [Example 341, 3-(4-((1R,5S)-3,8-diazabicyclo[3.2.1]octan-3-yl)-8-fluoro-2-((tetrahydro-1H-pyrrolizin-7a(5H)-yl)methoxy)pyrido[4,3-d]pyrimidin-7-yl)-4-(trifluoromethoxy)phenol] | 0.7 |
| C[C@H]1C[C@@H]1c1ccccc1-c1ncc2c(N3C[C@H]4CC[C@@H](C3)N4)nc(OCC34CCCN3CCC4)nc2c1F [Example 289, 4-((1R,5S)-3,8-diazabicyclo[3.2.1]octan-3-yl)-8-fluoro-2-((hexahydro-1H-pyrrolizin-7a-yl)methoxy)-7-(2-((1S,2S)-2-methylcyclopropyl)phenyl)pyrido[4,3-d]pyrimidine] | 218 |
| CC(C)c1ncccc1-c1ncc2c(N3C[C@H]4CC[C@@H](C3)N4)nc(OCC34CCCN3CCC4)nc2c1F [Example 307, 4-((1R,5S)-3,8-diazabicyclo[3.2.1]octan-3-yl)-8-fluoro-2-((hexahydro-1H-pyrrolizin-7a-yl)methoxy)-7-(2-isopropylpyridin-3-yl)pyrido[4,3-d]pyrimidine] | 3160 |
| Nc1nc2c(-c3ncc4c(N5C[C@H]6CC[C@@H](C5)N6)nc(OCC56CCCN5CCC6)nc4c3F)cccc2s1 [Example 453, 4-(4-((1R,5S)-3,8-diazabicyclo[3.2.1]octan-3-yl)-8-fluoro-2-((hexahydro-1H-pyrrolizin-7a-yl)methoxy)pyrido[4,3-d]pyrimidin-7-yl)benzo[d]thiazol-2-amine] | 27 |
